O=c1cc(-c2ccc(O)c(O)c2)oc2cc(O)cc(O)c12
solubility (mole fraction)
Settings | 273.2 K | 283.2 K | 293.2 K | 303.2 K | 313.2 K | 323.2 K
in ethanol | 0.000755 | 0.00117 | 0.00174 | 0.00205 | 0.00271 | 0.00318
in water | 2.06e-07 | 2.72e-07 | 3.49e-07 | 4.68e-07 | 7.3e-07 | 9.48e-07
